The values that follow come from patent US20230075007A1 (IMPACT NATURALS, INC., priority 2021, published 2023).

The conditions of data set [1]: cited from earlier work.
A short description of data set [2]: Dispersion in simulated gastric and intestinal fluids. Type of data set: physicochemical. As for the experimental part: Dispersion of the formulations in simulated gastric and intestinal fluids is evaluated over a 12 hour period.
Data set [3] addresses CB2 (Homo sapiens, UniProt P34972). The note with it: WHO assessment; cited from earlier work.

Chain of CB2 (P34972 whole entry, species assumed): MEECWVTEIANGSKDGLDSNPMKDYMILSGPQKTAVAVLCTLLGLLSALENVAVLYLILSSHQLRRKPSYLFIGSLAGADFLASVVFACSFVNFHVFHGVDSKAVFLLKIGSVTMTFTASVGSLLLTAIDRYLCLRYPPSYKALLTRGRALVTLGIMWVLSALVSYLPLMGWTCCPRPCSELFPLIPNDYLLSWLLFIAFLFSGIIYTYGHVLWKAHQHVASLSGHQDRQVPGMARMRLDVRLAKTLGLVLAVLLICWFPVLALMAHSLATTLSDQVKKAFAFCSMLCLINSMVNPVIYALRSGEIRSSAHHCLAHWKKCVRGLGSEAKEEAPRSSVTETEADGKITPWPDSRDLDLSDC

`C=C(C)[C@@H]1CCC(C)=C[C@H]1c1c(O)cc(CCCCC)cc1O` [Cannabidiol]: in data set [1], the aqueous solubility entry is “approximately 0.013 milligrams per milliliter”. The dispersion entry in data set [2] (FaSSGF, pH 1.2, 12 hour period) is “no dispersion”; in data set [2] (FaSSIF, pH 6.5, 12 hour period), “about 20%”; in data set [2] (FeSSIF, pH 5.5, 12 hour period), “about 20%”. Further, the “dispersion pattern in the biorelevant media” value in data set [2] (FaSSIF, FeSSIF and FaSSGF overall) was “poor dispersion”. Also, the “affinity to CB2” value in data set [3] is “low affinity”.
